Reference: PubChem BioAssay AID1918943 (Molecular Pharmacology Branch, DTP, NCI, 2023)

System: 855422-203-R-J1-PDC complex spheroid viability
Experiment: Anticancer human tumor 855422-203-R-J1-PDC patient-derived bladder carcinoma cell line growth inhibition
Conditions: for IC50: curve of first compound; for viability, T/C: stronger effect = lower value
Outline: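 Drug combinations with the LSD1 inhibitor iadademstat tested on tumor cells co-cultured as spheroids with endothelial cells and mesenchymal stem cells. Concentrations descended in half-log increments from clinical Cmax or 10 microM.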
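Further: drug exposure lasted 7 days starting on day 3 after seeding.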
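Wherever viability, T/C is given: luminescence viability as percent of DMSO vehicle wells = 100%.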

Question: Which results are given for `O=C(C=Cn1cnc(-c2cc(C(F)(F)F)cc(C(F)(F)F)c2)n1)NNc1cnccn1` + NC1CCC(NC2CC2c2ccccc2)CC1?
Answer: IC50 (second compound 0.1 µM): 34.6 nM; IC50 (second compound 0.316 µM): 54.3 nM; IC50 (second compound 1 µM): 45.6 nM; IC50 (second compound 3.16 µM): 40.4 nM; IC50 (second compound 10 µM): 45.1 nM; viability, T/C (second compound 0.1 µM, first compound 0.00316 µM): 126%; viability, T/C (second compound 0.1 µM, first compound 0.01 µM): 106%; viability, T/C (second compound 0.1 µM, first compound 0.0316 µM): 49.8%; viability, T/C (second compound 0.1 µM, first compound 0.1 µM): 44.6%; viability, T/C (second compound 0.1 µM, first compound 0.316 µM): 38.1%; viability, T/C (second compound 0.1 µM, first compound 1 µM): 28.6%; viability, T/C (second compound 0.316 µM, first compound 0.00316 µM): 142%; viability, T/C (second compound 0.316 µM, first compound 0.01 µM): 98.2%; viability, T/C (second compound 0.316 µM, first compound 0.0316 µM): 51.2%; viability, T/C (second compound 0.316 µM, first compound 0.1 µM): 49.5%; viability, T/C (second compound 0.316 µM, first compound 0.316 µM): 39.5%; viability, T/C (second compound 0.316 µM, first compound 1 µM): 28.1%; viability, T/C (second compound 1 µM, first compound 0.00316 µM): 128%; viability, T/C (second compound 1 µM, first compound 0.01 µM): 116%; viability, T/C (second compound 1 µM, first compound 0.0316 µM): 54.3%; viability, T/C (second compound 1 µM, first compound 0.1 µM): 46.6%; viability, T/C (second compound 1 µM, first compound 0.316 µM): 40%; viability, T/C (second compound 1 µM, first compound 1 µM): 28.4%; viability, T/C (second compound 3.16 µM, first compound 0.00316 µM): 110%; viability, T/C (second compound 3.16 µM, first compound 0.01 µM): 106%; viability, T/C (second compound 3.16 µM, first compound 0.0316 µM): 52.8%; viability, T/C (second compound 3.16 µM, first compound 0.1 µM): 44.3%; viability, T/C (second compound 3.16 µM, first compound 0.316 µM): 40.9%; viability, T/C (second compound 3.16 µM, first compound 1 µM): 27.9%; viability, T/C (second compound 10 µM, first compound 0.00316 µM): 99.1%; viability, T/C (second compound 10 µM, first compound 0.01 µM): 101%; viability, T/C (second compound 10 µM, first compound 0.0316 µM): 55.5%; viability, T/C (second compound 10 µM, first compound 0.1 µM): 43.1%; viability, T/C (second compound 10 µM, first compound 0.316 µM): 37.5%; viability, T/C (second compound 10 µM, first compound 1 µM): 31.9%
